Data on eight compounds can be found in publication PMC3285443 (European Journal of Pharmaceutical Sciences, 2010).

SMILES strings stand for the structures. In brackets after ≈: the same amount, converted by molar mass. Where two headings read alike, the source gives them in different places.

The logP is the decadic logarithm of the partition coefficient of the neutral form, usually between octanol and water. Read a high logP as a more lipophilic compound. Usually AUC stands for concentration integrated over time. High values mean high exposure, low ones low exposure. By Cmax is commonly meant the peak of the concentration-time curve. Broadly, the Tmax is the time from dosing to the highest level. What is called half-life is the time in which the quantity being followed falls by half. Lower therefore signals rapid decline. In general, clearance refers to a measure of how efficiently the substance is removed, as volume per time. A low value points to a low capacity for elimination. Broadly, the solubility is the dissolved amount per volume that the medium holds. As a reminder, the IC50 is the point on the concentration scale where inhibition reaches its midpoint.

Series [1] in a line: experimental LogP determination. The settings on record: for logP at 24 h: 1-octanol / 0.1 M sodium phosphate buffer, pH 7.4.
The nature of series [2]: compartmental pharmacokinetics after oral gavage. The note with it: female, Labrador retriever, dog, plasma, 0.3 mg/kg.
A short description of series [3]: cassette-dosing oral pharmacokinetic screening in dogs. The note with it: dog; for AUC / half-life: female, Labrador retriever, plasma, po, 0.3 mg/kg; for C24/IC50 (ratio of blood concentration over the IC50 with recombinant human sEH after 24 hour): n=1.
The nature of series [4]: compartmental pharmacokinetics after i.v. administration in dogs. The settings on record: female, Labrador retriever, dog, plasma, iv.
Series [5] is described as follows: physchem. The note with it: 25 °C, pH 7.4, aqueous buffer, thermodynamic from solid.
The nature of series [6]: in vivo. The settings on record: female, Labrador retriever, dog, po, 0.3 mg/kg.
A short description of series [7]: in vivo. The note with it: female, Labrador retriever, dog, iv.
Series [8] in a line: water solubility determination. The note with it: 0.1 M sodium phosphate buffer (pH 7.4), 25°C, 24 hours.
Series [9] deals with human sEH (human liver cytosol) (Homo sapiens, UniProt P34913). Nature of the series: LC/MS assay with 14,15-EET substrate, human liver cytosol. The series is classed as biochemical.
Series [10] concerns the target T1, human recombinant sEH (Homo sapiens, UniProt P34913).
T1 sequence (P34913 1-555): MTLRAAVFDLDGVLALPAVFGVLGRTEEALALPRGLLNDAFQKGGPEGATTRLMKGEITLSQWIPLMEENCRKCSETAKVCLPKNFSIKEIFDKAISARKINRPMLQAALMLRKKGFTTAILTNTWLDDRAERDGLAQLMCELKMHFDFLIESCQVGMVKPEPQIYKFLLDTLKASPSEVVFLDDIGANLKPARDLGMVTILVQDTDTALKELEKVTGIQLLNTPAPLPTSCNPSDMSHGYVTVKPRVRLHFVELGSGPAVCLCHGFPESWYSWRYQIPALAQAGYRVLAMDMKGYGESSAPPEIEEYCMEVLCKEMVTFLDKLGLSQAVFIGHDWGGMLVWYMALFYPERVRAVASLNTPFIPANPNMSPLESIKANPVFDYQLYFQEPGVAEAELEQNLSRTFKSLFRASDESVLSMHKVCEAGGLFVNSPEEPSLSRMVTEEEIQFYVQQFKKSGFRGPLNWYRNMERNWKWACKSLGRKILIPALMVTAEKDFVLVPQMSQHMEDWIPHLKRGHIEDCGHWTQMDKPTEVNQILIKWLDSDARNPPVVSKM
Nature of the series: radioactive t-DPPO assay, purified recombinant human sEH. It is filed as biochemical.

In series [11] the target is T2, purified human recombinant sEH (Homo sapiens, UniProt P34913).
T2 sequence (P34913 1-555): T1 sequence (P34913 1-555)
The series is classed as biochemical.

The target of series [12] is T3, recombinant human soluble epoxide hydrolase (Homo sapiens, UniProt P34913).
T3 sequence (P34913 1-555): T1 sequence (P34913 1-555)
Kind of series: fluorescent assay with CMNPC substrate, recombinant human sEH. The series is classed as biochemical.

In series [13] the target is T4, recombinant murine sEH (Mus musculus, UniProt P34914).
T4 sequence (P34914 1-554): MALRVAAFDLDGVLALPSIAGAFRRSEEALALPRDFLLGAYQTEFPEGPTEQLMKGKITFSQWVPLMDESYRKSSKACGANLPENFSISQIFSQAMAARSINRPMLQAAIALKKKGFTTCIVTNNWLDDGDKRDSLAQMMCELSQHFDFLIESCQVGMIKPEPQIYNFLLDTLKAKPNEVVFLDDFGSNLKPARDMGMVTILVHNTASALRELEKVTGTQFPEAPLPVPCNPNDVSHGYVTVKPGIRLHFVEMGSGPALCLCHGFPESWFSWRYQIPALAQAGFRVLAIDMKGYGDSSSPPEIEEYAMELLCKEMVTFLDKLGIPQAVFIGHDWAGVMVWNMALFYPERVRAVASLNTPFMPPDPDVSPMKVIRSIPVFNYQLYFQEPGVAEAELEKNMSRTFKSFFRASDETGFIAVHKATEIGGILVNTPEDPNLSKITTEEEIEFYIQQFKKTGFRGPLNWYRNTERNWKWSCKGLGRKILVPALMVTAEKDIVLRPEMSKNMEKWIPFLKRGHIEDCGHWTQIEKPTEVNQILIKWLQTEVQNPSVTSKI
Kind of series: fluorescent assay with CMNPC substrate, recombinant mouse sEH. It is filed as biochemical.

In series [14] the target is T5, recombinant rat sEH (Rattus norvegicus, UniProt P80299).
T5 sequence (P80299 1-554): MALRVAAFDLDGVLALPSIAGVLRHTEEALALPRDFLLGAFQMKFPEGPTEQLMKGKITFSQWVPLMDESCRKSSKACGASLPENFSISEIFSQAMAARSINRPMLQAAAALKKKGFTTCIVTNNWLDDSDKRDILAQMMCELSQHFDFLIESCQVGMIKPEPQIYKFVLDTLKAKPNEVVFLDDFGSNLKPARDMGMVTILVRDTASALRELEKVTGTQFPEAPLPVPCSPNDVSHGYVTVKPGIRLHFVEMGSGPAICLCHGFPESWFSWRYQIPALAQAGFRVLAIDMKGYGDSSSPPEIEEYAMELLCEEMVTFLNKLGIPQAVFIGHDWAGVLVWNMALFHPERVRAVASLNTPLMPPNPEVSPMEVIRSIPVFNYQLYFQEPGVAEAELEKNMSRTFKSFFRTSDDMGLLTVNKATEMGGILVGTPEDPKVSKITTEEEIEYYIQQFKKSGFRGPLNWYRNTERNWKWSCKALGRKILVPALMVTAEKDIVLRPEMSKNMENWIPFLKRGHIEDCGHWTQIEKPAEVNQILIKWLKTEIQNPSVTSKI
Nature of the series: fluorescent assay with CMNPC substrate, recombinant rat sEH. The series is classed as biochemical.

Turning to `O=C(O)CCCCCCCCCCCNC(=O)NC12CC3CC(CC(C3)C1)C2` [compound 1, 12-(3-adamantane-1-yl-ureido)-dodecanoic acid], the logP at 24 h in series [1] was 3.
On to `CCOCCOCCOCCCCCNC(=O)NC12CC3CC(CC(C3)C1)C2` [compound 3, 1-adamantan-1-yl-3-{5-[2-(2-ethoxyethoxy)ethoxy]pentyl}urea], for which, in [2], the area under the curve (AUC) was 0.03 µM·h, the peak level (Cmax) was 20 ± 10 nM, the Tmax came to 0.2 ± 0.1 h and the half-life was 1.7 ± 1 h. In series [3], this compound gave an AUC of 0.04 µM·h and a half-life of 1 h. In series [4], the clearance is 96.7 mL/min/kg and the half-life was 9.6 ± 1.8 min. In [1], this compound came in with a logP at 24 h of 2.6.
`CC(=O)N1CCC(NC(=O)NC23CC4CC(CC(C4)C2)C3)CC1` [compound 14, N-(1-acetylpiperidin-4-yl)-N’-(adamant-1-yl) urea] showed a solubility at 24 h in series [5] of 490 µg/mL (≈ 1530 µM). Also, in [6], the highest level (Cmax) was 80 ± 30 nM, the time to peak (Tmax) amounted to 1 ± 0.7 h and the half-life is 1.7 ± 0.4 h. In series [7], this compound had a clearance of 40 mL/min/kg and a half-life of 0.6 ± 0.1 h.
For the compound `CC(=O)N1CCC(NC(=O)Nc2ccc(OC(F)(F)F)cc2)CC1` [compound 24], in series [3] (oral 0.3 mg/kg cassette dosing, n=1, non-compartmental), the “T1/2 (terminal half-life)” value is reported as more than 24 h. Further, the Water solubility in [8] was 51 µg/mL. For the same compound, the “LogP (pH 7.4)” value in series [1] (octanol / 0.1 M sodium phosphate buffer at pH 7.4) was 2.3.
In the case of `CS(=O)(=O)N1CCC(NC(=O)Nc2ccc(OC(F)(F)F)cc2)CC1` [compound 27, 1-(1-methylsulfonyl-piperidin-4-yl)-3-(4-trifluoromethoxy-phenyl)-urea], the concentration for half-maximal inhibition (IC50) in series [9] came to 26 nM; in series [10], 26 nM; in series [11] (IC50 on human sEH in buffer, buffer) it was 150 nM; in series [11] (IC50 on human sEH incubated in sEH depleted canine liver cytosol, sEH depleted canine liver cytosol supplemented with purified human recombinant sEH) it was 120 nM; in series [12] (IC50, CMNPC, Human, purified recombinant enzyme at […]), 3 nM; in [13], 5 nM. Besides, in series [14], the IC50 turned out to be 9 nM. Further, in series [3], the area under the curve (AUC) is 28.3 µM·h. This compound yielded a half-life in series [3] of more than 24 h. In addition, the lipophilicity (logP) at 24 h in [1] turned out to be 1.9.
With `CC(=O)N1CCC(NC(=O)NC2CCCCCC2)CC1` [compound 31, 1-cycloheptyl-3-(1-acetylpiperidin-4-yl) urea], in series [3] (oral 0.3 mg/kg cassette dosing), the “C24/IC50 (ratio of blood concentration over the IC50 with recombinant human sEH after 24 hour)” value is 1.0. The same compound gave an AUC in series [3] of 3.67 µM·h. This compound also had a half-life in series [3] of 5.2 h. Besides, the IC50 was determined as 300 nM in series [10]; 28 nM in series [12] (IC50, CMNPC, Human); 12 nM in series [13]; 7 nM in series [14].
Turning to `COC(=O)c1ccc(NC(=O)NC23CC4CC(CC(C4)C2)C3)cc1O` [compound 62, 4-(3-adamantane-1-yl-ureido)-2-hydroxyl-benzoic acid methyl ester], in series [3] (oral 0.3 mg/kg cassette dosing), the “C24/IC50 (ratio of blood concentration over the IC50 with recombinant human sEH after 24 hour)” value was found to be 0.7. Also, the AUC in series [3] was 0.21 µM·h. The IC50 in [10] is 6 nM; in [12] it was 3 nM; in [13] it was 10 nM; in [14], 8 nM.
As to `O=C(Nc1ccc(Cl)cc1)Nc1ccc(Cl)c(Cl)c1` [compound 74, triclocarban, reference compound], the “C24/IC50 (ratio of blood concentration over the IC50 with recombinant human sEH after 24 hour)” value in [3] (oral 0.3 mg/kg cassette dosing) is less than 0.1. In series [3], this compound gave an AUC of 0.03 µM·h and a half-life of 0.5 h.
